The target in data set [1] is T1, PEPT-1 (Homo sapiens, UniProt P46059).
T1 construct: allowed to differentiate for at least 7 d to ensure sufficient PEPT-1 expression; host or cells: Caco-2
T1 sequence (P46059 1-708): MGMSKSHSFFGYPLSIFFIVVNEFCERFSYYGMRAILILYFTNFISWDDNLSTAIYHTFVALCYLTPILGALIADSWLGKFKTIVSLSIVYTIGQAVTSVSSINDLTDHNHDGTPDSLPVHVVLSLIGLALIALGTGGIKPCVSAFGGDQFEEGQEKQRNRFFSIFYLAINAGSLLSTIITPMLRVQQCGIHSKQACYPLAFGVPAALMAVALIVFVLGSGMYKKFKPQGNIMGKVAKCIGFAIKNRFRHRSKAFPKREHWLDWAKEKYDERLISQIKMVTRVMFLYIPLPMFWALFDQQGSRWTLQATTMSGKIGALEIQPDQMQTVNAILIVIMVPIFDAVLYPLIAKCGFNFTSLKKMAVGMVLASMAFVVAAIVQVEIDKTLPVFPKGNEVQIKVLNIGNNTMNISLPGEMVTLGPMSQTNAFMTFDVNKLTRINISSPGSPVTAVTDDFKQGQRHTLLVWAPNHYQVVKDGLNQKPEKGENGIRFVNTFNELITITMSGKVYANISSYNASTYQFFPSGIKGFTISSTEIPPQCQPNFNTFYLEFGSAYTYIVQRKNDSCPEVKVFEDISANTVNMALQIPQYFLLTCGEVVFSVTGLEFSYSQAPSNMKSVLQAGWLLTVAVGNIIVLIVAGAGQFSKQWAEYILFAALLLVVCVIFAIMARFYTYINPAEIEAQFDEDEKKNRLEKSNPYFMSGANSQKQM
In words: Inhibition of PEPT-1 mediated Gly-Sar uptake in Caco-2 cells (UPLC-MS/MS quantification of intracellular Gly-Sar). Type of data set: cell-based. Particulars: for IC50: 7 d differentiation, 37 °C, pH = 6.0, three independent experiments; for Ki: converted from IC50 with the IC50-to-Ki tool, assuming competitive inhibition and a Km of 860 µM for Gly-Sar, read-out: calculated Ki. As for the experimental part:
Caco-2 cells were cultivated in DMEM supplemented with 10% FBS, glutamine (2 mM), penicillin (100 U/mL), streptomycin (100 µg/mL), and 1% NEAS. They were kept at 37 °C and 5% CO2 and passaged once a week. For validation and uptake experiments, cells were seeded in 96-well plates at a density of 6.25 × 10^4 cells/cm^2 and allowed to differentiate for at least 7 d to ensure sufficient PEPT-1 expression. The uptake buffer (MES) was prepared as previously described by Sun et al. and contained 50 mM MES, 136.9 mM NaCl, 5.4 mM KCl, 1.26 mM CaCl2, 0.81 mM MgSO4 × 7 H2O, 0.5 mM Na2HPO4, 0.44 mM KH2PO4, 0.42 mM NaHCO3, and 5.54 mM glucose. The pH value of the uptake buffer was adjusted to pH = 6.0 using either HCl or NaOH solutions. Gly-Sar uptake was tested after 7, 24, and 28 d of Caco-2 cell differentiation. […] After an incubation period of 10 min at 37 °C under gentle agitation, transport was terminated by removing the solution and washing the cells with ice-cold MES buffer (100 µL/well) thrice while the plate was kept on ice. Afterwards, cells were lysed in the 96-well cell culture plate with aqueous NH4OH (10%, 50 µL/well) and sample preparation was performed as described below.
Sample preparation was performed directly in the 96-well cell culture plates. Cell lysates (50 µL) were spiked with 25 µL IS spike solution and, depending on the sample type, with either 5 µL of the respective calibration or QC solution (calibration and QC samples) or with 5 µL H2O/ACN (95/5, v/v) + 0.1% FA for volume compensation (study samples). Subsequently, all samples were filled with 180 µL ACN + 0.1% FA for protein precipitation and centrifuged for 10 min at 800 g. Finally, the 96-well plates were transferred into the Sample Manager for direct injection onto the UPLC-MS/MS system.
The quantification of Gly-Sar in cell homogenates was performed on a UPLC-MS/MS system consisting of a triple-stage quadrupole mass spectrometer (Waters Xevo TQ-XS with Z-spray ESI source) and an Acquity Classic UPLC® (Waters, Milford, MA, USA). Chromatographic separation was achieved on a Waters Cortecs UPLC® HILIC column (90 Å, 1.6 µm, 2.1 × 50 mm) heated to 60 °C with the injection volume set to 10 µL and a flow rate of 0.4 mL/min. The mobile phase consisted of H2O/ACN (95/5, v/v) + 0.1% FA (aqueous eluent; A) and ACN + 0.1% FA (ACN eluent; B). Gly-Sar was eluted with an isocratic composition of 16% A/84% B for 3 min. Subsequently, the conditions were changed to 50% A/50% B within 0.5 min and maintained for 0.5 min to flush the column. Afterwards, the initial ratio of 16% A and 84% B was restored during 0.5 min. The mass spectrometer was operated using an electrospray ionization (ESI) source in the positive ion detection mode. Quantification of Gly-Sar and IS was performed by selected reaction monitoring (SRM) using argon collision gas for collision-induced dissociation (CID). Mass spectrometric parameters were optimized for the detection of Gly-Sar and the IS using the auto-optimization feature IntelliStart of the MassLynx V4.2 system software (Waters, Milford, MA, USA).
Calibration curves were fitted by the Waters TargetLynx V4.2 software (Waters, Milford, MA, USA) using 1/x^2-weighted linear regressions of the peak area ratios of Gly-Sar and the IS. General calculations were performed using Microsoft Excel 2010 ([…]). IC50 values (i.e., the inhibitor concentration, which causes a baseline-normalized half-maximal Gly-Sar uptake) were calculated using the GraphPad Prism 9 software (version 9.1.0; GraphPad Software Inc., La Jolla, CA, USA). Intracellular Gly-Sar concentrations at varying inhibitor concentrations were fitted with nonlinear regression to a four-parameter concentration–response curve (4PL) according to the equation: […]

The target of data set [2] is PEPT-1. Particulars: read-out: reported Ki; cited from earlier work.
Data set [3] in a line: Stability of Gly-Sar in processed cell lysate and spike solutions. Type of data set: physicochemical. As for the experimental part:
The assay to quantify Gly-Sar in cell homogenates was validated following the EMA and FDA guidelines on bioanalytical method validation. For this purpose, the linearity, accuracy, precision, selectivity, stability, recovery, and matrix effect of the assay were determined in three validation batches, which included eight calibration samples in duplicates and 24 QC samples at four concentrations (LLOQ, low, mid, and high QC) in sixfold determination. Accuracy (%) is the degree of agreement between the determined value and known true value and was subsequently determined by dividing the quantified mean concentration by the nominal concentration. Precision (% CV) describes the degree of agreement between individual measurements of the same analyte and was calculated by dividing the standard deviation by the quantified mean of the measurements. Chromatograms of blank cell lysate samples from six different cell passage numbers and of corresponding spiked samples were assessed for interfering signals at the retention time of Gly-Sar and IS to determine the selectivity of the method. […] Recovery was evaluated for low, mid, and high QC concentration of Gly-Sar by the comparison of peak areas of QC samples spiked after extraction with the respective peak areas of […] spiked after extraction. […] Gly-Sar integrity was further evaluated in the spike solutions. […]

For data set [4], the target named is T1, PEPT-1. More on the design: method as in PMID 22490229. The settings on record: cited from earlier work.
[5] abbreviates: Caco-2 cells, 20 µM Gly-Sar, 10 min.

These results are taken from paper PMC8309108, “Rapid and Sensitive Quantification of Intracellular Glycyl-Sarcosine for Semi-High-Throughput Screening for Inhibitors of PEPT-1” (Pharmaceutics, 2021).

“Also recorded” adds a separate entry of the source. Non-standard residues stand in square brackets, D forms with d. Residues, ends and D or L forms follow the SMILES beside them. Sar = CNCC(=O)O

What is called IC50 is the concentration at which inhibition is half-maximal. For orientation: Ki means the equilibrium dissociation constant of an inhibitor or competing ligand from its target. In general, Km refers to the substrate concentration at which the rate is half of its maximum.

On PEPT-1 [1] (setting [5]), `NCC(=O)N1CCC[C@H]1C(=O)O` [Gly-Pro, glycyl-proline] (H-Gly-Pro-OH) had an IC50 of 257 ± 28 µM. Besides, the inhibitory constant (Ki) at PEPT-1 [1] was 250 µM; on PEPT-1 [2], 300 µM.

As to `CN(CC(=O)O)C(=O)CN` [Gly-Sar, glycyl-sarcosine] (H-Gly-[Sar]-OH), the “fraction of Gly-Sar uptake that is PEPT-1 mediated” value at PEPT-1 [1] (Caco-2 cells, 10 min incubation) is “around 86%”. The “ratio of bottom to top of the fitted sigmoidal curves (non-inhibited, non-PEPT-1 specific Gly-Sar uptake)” value at PEPT-1 [1] (mean over all measured IC50 determinations, Caco-2 cells) was 14.0 ± 6.7%. For the same compound, the “deviation of peak areas from the initial values” in data set [3] (samples stored in the autosampler, over 24 h) is given as under 15%. In data set [3] (spike solutions in H2O/ACN (95/5, v/v) + 0.1% FA), the “time stable in spike solutions” value is given as “at least 9 months”. Besides, the Km on PEPT-1 [4] is 860 µM.

With `Nc1nc2c(ncn2COCCO)c(=O)[nH]1` [aciclovir], the “inhibition of Gly-Sar uptake (in words)” value on PEPT-1 [1] (Caco-2 cells, 20 µM Gly-Sar, 10 min, pH = 6.0, 0.1–5000 µM inhibitor) is reported as “no inhibition; also recorded: did not interfere with Gly-Sar uptake; also recorded: did no inhibit the Gly-Sar uptake”.

As to `CCCCc1nc(Cl)c(CO)n1Cc1ccc(-c2ccccc2-c2nn[nH]n2)cc1` [losartan], half-maximal inhibition against PEPT-1 [1] (setting [5]) (IC50) required 45.1 ± 15.8 µM. Besides, the inhibitory constant (Ki) on PEPT-1 [1] was 44 µM; at PEPT-1 [2], 24 µM.

At PEPT-1 [1] (setting [5]), `CC(C)[C@H](N)C(=O)OCCOCn1cnc2c(=O)[nH]c(N)nc21` [valaciclovir] registered a half-maximal inhibitory concentration (IC50) of 894 ± 309 µM. The Ki on PEPT-1 [1] is 874 µM; on PEPT-1 [2], 740 µM.
